What was measured:
[1] = target: adult mouse receptors with two δ-subunits (lacking the ε-subunit) (Mus musculus, UniProt P02716+P04756); assay: outside-out patch clamp, relative peak current; assay type: biochemical; conditions: 300 μM ACh, -50 mV, 22-25°C, pH 7.3
[2] = target: adult mouse muscle nAChR, (α1)2β1εδ (Mus musculus, UniProt P02716+P04756+P20782); assay: outside-out patch clamp, relative peak current; assay type: biochemical; conditions: 300 μM ACh, -50 mV, 22-25°C, pH 7.3
Sequence of adult mouse muscle nAChR, (α1)2β1εδ (P04756 21-457): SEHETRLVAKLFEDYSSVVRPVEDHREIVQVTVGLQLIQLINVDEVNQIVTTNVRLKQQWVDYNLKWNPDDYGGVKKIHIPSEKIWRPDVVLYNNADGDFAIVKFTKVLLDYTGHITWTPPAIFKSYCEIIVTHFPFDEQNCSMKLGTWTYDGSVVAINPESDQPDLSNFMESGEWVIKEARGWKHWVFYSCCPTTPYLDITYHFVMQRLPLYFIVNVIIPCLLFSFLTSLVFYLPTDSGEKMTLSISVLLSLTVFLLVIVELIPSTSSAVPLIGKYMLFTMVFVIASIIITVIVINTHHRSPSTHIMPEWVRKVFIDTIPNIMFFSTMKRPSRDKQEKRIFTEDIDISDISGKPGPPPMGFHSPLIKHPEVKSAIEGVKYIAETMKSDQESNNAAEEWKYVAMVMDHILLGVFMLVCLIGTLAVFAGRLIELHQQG
Sequence of adult mouse muscle nAChR, (α1)2β1εδ (P20782 21-493): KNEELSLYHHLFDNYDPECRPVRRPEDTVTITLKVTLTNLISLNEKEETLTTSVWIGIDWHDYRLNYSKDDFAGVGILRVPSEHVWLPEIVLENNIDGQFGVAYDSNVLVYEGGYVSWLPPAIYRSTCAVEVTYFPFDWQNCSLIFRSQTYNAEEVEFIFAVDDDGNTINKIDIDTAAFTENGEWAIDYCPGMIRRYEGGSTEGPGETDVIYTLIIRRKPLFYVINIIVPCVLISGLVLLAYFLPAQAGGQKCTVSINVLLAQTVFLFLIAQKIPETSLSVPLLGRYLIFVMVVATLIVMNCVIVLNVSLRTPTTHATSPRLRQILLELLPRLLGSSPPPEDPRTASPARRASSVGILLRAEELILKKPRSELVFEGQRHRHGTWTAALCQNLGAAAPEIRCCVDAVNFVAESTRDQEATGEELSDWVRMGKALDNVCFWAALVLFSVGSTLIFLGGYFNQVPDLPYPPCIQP
Sequence of adult mouse muscle nAChR, (α1)2β1εδ (P02716 25-520): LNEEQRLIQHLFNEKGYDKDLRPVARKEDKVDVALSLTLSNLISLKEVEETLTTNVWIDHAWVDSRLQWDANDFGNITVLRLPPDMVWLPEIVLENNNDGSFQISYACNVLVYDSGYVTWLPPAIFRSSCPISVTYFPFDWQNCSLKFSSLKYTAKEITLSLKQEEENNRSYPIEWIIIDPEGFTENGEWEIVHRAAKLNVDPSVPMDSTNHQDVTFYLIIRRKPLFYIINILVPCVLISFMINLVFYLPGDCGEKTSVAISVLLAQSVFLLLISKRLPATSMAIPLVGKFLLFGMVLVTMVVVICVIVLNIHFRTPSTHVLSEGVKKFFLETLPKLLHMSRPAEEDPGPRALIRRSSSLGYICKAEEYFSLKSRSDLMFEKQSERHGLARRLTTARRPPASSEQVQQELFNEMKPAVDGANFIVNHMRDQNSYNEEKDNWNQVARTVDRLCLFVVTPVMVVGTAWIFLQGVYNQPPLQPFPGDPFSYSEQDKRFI
Sequence of adult mouse muscle nAChR, (α1)2β1εδ (P09690 24-501 partner): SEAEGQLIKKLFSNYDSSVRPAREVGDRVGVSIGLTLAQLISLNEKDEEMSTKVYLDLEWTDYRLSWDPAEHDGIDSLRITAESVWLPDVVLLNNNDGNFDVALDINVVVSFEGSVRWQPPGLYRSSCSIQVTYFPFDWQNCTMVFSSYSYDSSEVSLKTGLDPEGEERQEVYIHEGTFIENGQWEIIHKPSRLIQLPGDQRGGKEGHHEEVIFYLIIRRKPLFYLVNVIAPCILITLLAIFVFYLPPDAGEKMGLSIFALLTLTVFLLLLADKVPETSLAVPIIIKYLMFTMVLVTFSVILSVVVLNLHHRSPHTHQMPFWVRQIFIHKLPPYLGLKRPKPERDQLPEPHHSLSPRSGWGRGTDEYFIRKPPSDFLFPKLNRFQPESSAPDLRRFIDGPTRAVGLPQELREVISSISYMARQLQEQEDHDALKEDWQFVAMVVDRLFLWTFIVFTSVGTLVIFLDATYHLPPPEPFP

Sequence of adult mouse receptors with two δ-subunits (lacking the ε-subunit) (P04756 21-457): as the sequence (P04756 21-457) above
Sequence of adult mouse receptors with two δ-subunits (lacking the ε-subunit) (P02716 25-520): as the sequence (P02716 25-520) above
Sequence of adult mouse receptors with two δ-subunits (lacking the ε-subunit) (P09690 24-501 partner): as the sequence (P09690 24-501 partner) above

With `C=CC[N+]1([C@H]2C[C@H]3[C@@H]4CC[C@H]5C[C@H](O)[C@@H](N6CCOCC6)C[C@]5(C)[C@H]4CC[C@]3(C)[C@H]2OC(C)=O)CCCC1` [rocuronium] the “current relative to control at 40 nM” value [1] was 0.16 ± 0.01 and the “current relative to control at 40 nM” value [2] was 0.32 ± 0.05.
